This passage reports MIC results from DBAASP.

Some test systems named below: Klebsiella pneumoniae; Streptococcus pneumoniae; Bacillus subtilis; Enterococcus faecium; Enterococcus faecalis; Escherichia coli C600; Staphylococcus warneri; Pseudomonas aeruginosa.
Common to all, as to experiment: ≥ marks a high value that may be exact or a test limit, other limits are often not marked, values filed in µg/mL are converted to µM
Experiment [1] relates to Escherichia coli O157:H7 CICC 21530.
Experiment [2] has as its system Pseudomonas aeruginosa CICC 10419.
Experiment [3] concerns Salmonella enterica subsp. enterica serovar Pullorum CVCC 1802.
In experiment [4] the test system is Pseudomonas aeruginosa CICC 21630.
In experiment [5] the test system is Enterococcus faecium CMCC 1.2136.
The subject of experiment [6] is Staphylococcus aureus ATCC 43300.
Experiment [7] concerns Staphylococcus aureus ATCC 25923.
Experiment [8] deals with Bacillus subtilis ATCC 6633.
For experiment [9], the system named is Escherichia coli CVCC 195.
Experiment [10] has as its system Salmonella enterica subsp. enterica serovar Typhimurium ATCC 14028.
The subject of experiment [11] is Escherichia coli CVCC 1515.
The subject of experiment [12] is Streptococcus suis CVCC 606.
The test system of experiment [13] is Salmonella enterica subsp. enterica serovar Choleraesuis CVCC 503.
The test system of experiment [14] is Salmonella enterica subsp. enterica serovar Pullorum CVCC 1789.
For experiment [15], the system named is Salmonella enterica subsp. enterica serovar Enteritidis CVCC 3377.
Experiment [16] relates to Pseudomonas aeruginosa PAO1.
Experiment [17] deals with Escherichia coli ATCC 25922.
In experiment [18] the test system is Staphylococcus epidermidis BCM0060.
The subject of experiment [19] is Staphylococcus aureus 209P.
Experiment [20] has as its system Bacillus subtilis VKM B-501.
In experiment [21] the test system is Staphylococcus aureus ATCC 29213.
Experiment [22] has as its system Klebsiella pneumoniae ATCC 13883.
Experiment [23] has as its system Pseudomonas aeruginosa ATCC 27853.
Experiment [24] has as its system Staphylococcus haemolyticus.
Experiment [25] concerns Acinetobacter baumannii ATCC 19606.
For experiment [26], the system named is Staphylococcus lugdunensis.
Experiment [27] has as its system Staphylococcus epidermidis ATCC 12228.
In experiment [28] the test system is Escherichia coli BL21(DE3).
Experiment [29] concerns Staphylococcus aureus ATCC 19636.
For experiment [30], the system named is Pseudomonas aeruginosa ATCC 9027.
The test system of experiment [31] is Micrococcus luteus ATCC 49732.
Experiment [32] has as its system Escherichia coli ATCC 11775.
The subject of experiment [33] is Candida albicans ATCC 14053.
Experiment [34] concerns Staphylococcus aureus ATCC 12600.

In brackets after ≈: the same amount, converted by molar mass. Several values for one entry are separate records, joined by “and”; a condition that tells them apart may be missing. Identical values can stand only once.

As usually defined, the MIC is the least concentration at which growth counts as inhibited. The low end stands for a more susceptible organism, the high end for a less susceptible organism. Consider `CC(C)[C@H](NC(=O)CNC(=O)[C@H](CC(N)=O)NC(=O)[C@H](CCCN=C(N)N)NC(=O)[C@H](Cc1ccc(O)cc1)NC(=O)[C@@H](NC(=O)[C@H](C)NC(=O)[C@@H](NC(=O)[C@H](CC(N)=O)NC(=O)[C@H](Cc1c[nH]c2ccccc12)NC(=O)[C@H](C)NC(=O)[C@H](Cc1ccccc1)NC(=O)CN)C(C)C)C(C)C)C(=O)N[C@@H](CCCN=C(N)N)C(=O)N[C@H](C(=O)N[C@@H](C)C(=O)N[C@@H](Cc1cnc[nH]1)C(=O)N[C@@H](CCCN=C(N)N)C(=O)N[C@@H](CCCN=C(N)N)C(=O)N[C@@H](C)C(=O)N[C@@H](CC(N)=O)C(=O)O)C(C)C` [GFAWNVAVYRNGVRVAHRRAN], for which the minimum inhibitory concentration (MIC) in experiment [1] is 6.63 µM (≈ 16 µg/mL); in experiment [2], at least 53 µM; in experiment [3] it was 13.3 µM (≈ 32 µg/mL); in [4], at least 53 µM; in experiment [5], 6.63 µM (≈ 16 µg/mL); in experiment [6], above 26.5 µM. Further, the MIC in experiment [7] was 0.829 µM (≈ 2 µg/mL); in [8], 1.66 µM (≈ 4 µg/mL); in experiment [9], 13.3 µM (≈ 32 µg/mL); in [10] it was above 26.5 µM; in experiment [11], 6.63 µM (≈ 16 µg/mL); in experiment [12] it was at least 53 µM. Also, the MIC was 26.5 µM (≈ 64 µg/mL) in experiment [13], at least 53 µM in experiment [14] and 0.414 µM (≈ 1 µg/mL) in experiment [15].
On to `CC[C@H](C)[C@H](NC(=O)[C@H](CCCCN)NC(=O)[C@H](Cc1c[nH]c2ccccc12)NC(=O)[C@H](CCCN=C(N)N)NC(=O)[C@H](CCCN=C(N)N)NC(=O)CNC(=O)[C@H](Cc1cnc[nH]1)NC(=O)CNC(=O)CN)C(=O)N[C@H](C(=O)N[C@H](C(=O)N[C@H](C(=O)N[C@@H](CCCN=C(N)N)C(=O)N[C@@H](Cc1c[nH]c2ccccc12)C(=O)N[C@@H](CCCN=C(N)N)C(=O)N[C@@H](CCCN=C(N)N)C(N)=O)[C@@H](C)CC)C(C)C)C(C)C` [GGHGRRWKIVVIRWRR], for which the MIC in the experiment with Klebsiella pneumoniae was 4.7 µM (≈ 9.55 µg/mL); with Streptococcus pneumoniae it was 9.3 µM (≈ 18.9 µg/mL); with Bacillus subtilis, 1.33 µM (≈ 2.7 µg/mL); in the experiment with Enterococcus faecium it was 0.3 µM (≈ 0.609 µg/mL); in [6], 1.3 µM and 2.7 µM; with Enterococcus faecalis, 1 µM (≈ 2.03 µg/mL). Besides, the minimal inhibitory concentration (MIC) in experiment [16] was 1.7 µM (≈ 3.45 µg/mL); in [17], 1 µM and 3 µM; in experiment [18], 2.3 µM (≈ 4.67 µg/mL).
In the case of `CC[C@H](C)[C@H](NC(=O)[C@H](C)NC(=O)[C@H](CCCCN)NC(=O)[C@H](CCCN=C(N)N)NC(=O)CNC(=O)[C@H](CCCCN)NC(=O)[C@H](CCCCN)NC(=O)[C@H](CCCCN)NC(=O)[C@@H](NC(=O)[C@H](CC(C)C)NC(=O)[C@H](CCCCN)NC(=O)CNC(=O)[C@H](Cc1ccccc1)NC(=O)[C@H](CC(C)C)NC(=O)CN)[C@@H](C)CC)C(=O)N[C@@H](CO)C(=O)N[C@@H](Cc1ccc(O)cc1)C(=O)N[C@@H](C)C(=O)N[C@H](C(=O)N[C@@H](CCCCN)C(=O)N[C@@H](CCCCN)C(=O)N[C@@H](C)C(=O)N[C@@H](CCCN=C(N)N)C(=O)NCC(=O)N[C@@H](CCCCN)C(=O)N[C@@H](Cc1cnc[nH]1)C(=O)O)C(C)C` [GLFGKLIKKKGRKAISYAVKKARGKH], the MIC in experiment [19] was determined as 18 µM (≈ 51.9 µg/mL); in experiment [20] it was 0.7 µM (≈ 2.02 µg/mL); in the experiment on Escherichia coli C600 it was 6 µM (≈ 17.3 µg/mL).
Turning to `CC(C)C[C@H](NC(=O)CN)C(=O)N[C@@H](CC(C)C)C(=O)N[C@@H](CCCN=C(N)N)C(=O)N[C@@H](C)C(=O)N[C@@H](CO)C(=O)N[C@@H](CO)C(=O)N[C@@H](CCCCN)C(=O)N[C@@H](Cc1c[nH]c2ccccc12)C(=O)NCC(=O)N[C@@H](CCCN=C(N)N)C(=O)N[C@@H](CCCCN)C(=O)N[C@@H](Cc1ccc(O)cc1)C(=O)N[C@@H](Cc1ccc(O)cc1)C(=O)N[C@H](C(=O)N[C@@H](CC(=O)O)C(=O)N[C@@H](CC(C)C)C(=O)N[C@@H](C)C(=O)NCC(=O)N[C@@H](CS)C(=O)N[C@@H](C)C(=O)N[C@@H](CCCCN)C(=O)N[C@@H](C)C(=O)O)C(C)C` [GLLRASSKWGRKYYVDLAGCAKA], the MIC stood at 1 µM (≈ 2.51 µg/mL) in experiment [21]; 8 µM (≈ 20.1 µg/mL) in experiment [22]; 12.5 µM (≈ 31.3 µg/mL) in the experiment with Staphylococcus warneri; 8 µM (≈ 20.1 µg/mL) in [23]; 24.9 µM (≈ 62.5 µg/mL) in [24]; 8 µM (≈ 20.1 µg/mL) in experiment [25]. The MIC was 24.9 µM (≈ 62.5 µg/mL) in experiment [26] and 11.3 µM (≈ 28.4 µg/mL) in [17].
For `CC[C@H](C)[C@H](NC(=O)[C@@H]1CCCN1C(=O)[C@H](CC(C)C)NC(=O)[C@H](CC(C)C)NC(=O)[C@H](CCCCN)NC(=O)[C@@H](N)CCCCN)C(=O)N[C@H](C(=O)N[C@@H](CCCCN)C(=O)N[C@@H](CC(N)=O)C(=O)N[C@@H](CC(C)C)C(=O)N[C@@H](CC(C)C)C(=O)N[C@@H](CCCCN)C(=O)N[C@@H](CO)C(=O)N[C@@H](CC(C)C)C(=O)N[C@@H](CC(C)C)C(=O)O)C(C)C` [KKLLPIVKNLLKSLL], the minimum inhibitory concentration (MIC) in the experiment with Pseudomonas aeruginosa is 2.5 µM (≈ 4.3 µg/mL); in [27] it was 0.025 µM (≈ 0.043 µg/mL); in experiment [28] it was 0.2 µM (≈ 0.344 µg/mL).
Consider `CC(C)C[C@H](NC(=O)[C@H](Cc1c[nH]c2ccccc12)NC(=O)[C@H](CCCCN)NC(=O)[C@H](CC(C)C)NC(=O)[C@H](Cc1c[nH]c2ccccc12)NC(=O)[C@H](C)NC(=O)[C@H](CCCN=C(N)N)NC(=O)[C@H](Cc1c[nH]c2ccccc12)NC(=O)[C@H](CCCCN)NC(=O)[C@@H](N)CCCCN)C(=O)N[C@@H](C)C(=O)N[C@@H](CCCCN)C(=O)N[C@@H](CCCCN)C(=O)O` [KKWRAWLKWLAKK], for which the minimal inhibitory concentration (MIC) in [21] worked out at 7.17 µM (≈ 12.5 µg/mL); in experiment [29], 0.918 µM (≈ 1.6 µg/mL); in experiment [23], 0.918 µM (≈ 1.6 µg/mL); in experiment [7], 7.17 µM (≈ 12.5 µg/mL); in experiment [30] it was 1.78 µM (≈ 3.1 µg/mL); in experiment [17], 1.78 µM (≈ 3.1 µg/mL).
With `CC(C)[C@H](NC(=O)[C@H](C)NC(=O)[C@@H](NC(=O)CNC(=O)[C@@H]1CCCN1)[C@@H](C)O)C(=O)N[C@@H](Cc1ccccc1)C(=O)N[C@@H](C)C(=O)O` [PGTAVFA], the MIC in experiment [31], in experiment [32], in experiment [33] and in [34] was at least 1010 µM each time.
